Reference: ChEMBL document CHEMBL1811894, “Structural and conformational analysis of proanthocyanidins from Parapiptadenia rigida and their wound-healing properties” (J Nat Prod, 2011)
The source made the active and inactive calls. The calls are words filed in the database; no cut-off is given here.

Columns and labels:
[1] = system: NIH3T3; assay: Wound healing activity in Swiss albino mouse 3T3 cells assessed as cell migration-associated increase in cell number at 20 uM after 12 hrs by scratch assay; assay type: functional, cell-based
[2] = system: NIH3T3; assay: Cytotoxicity against Swiss albino mouse 3T3 cells at 10 to 20 uM; assay type: cell-based; conditions: nih3t3, 20 µM
[3] = system: Jurkat; assay: Inhibition of TNF-alpha-induced NFkappaB activity in human Jurkat cells at 10 uM after 24 hrs by EMSA; assay type: cell-based
[4] = system: NIH3T3; assay: Wound healing activity in Swiss albino mouse 3T3 cells assessed as cell migration-associated increase in cell number at 1 uM after 12 hrs by scratch assay; assay type: functional, cell-based
[5] = system: NIH3T3; assay: Wound healing activity in Swiss albino mouse 3T3 cells assessed as cell migration-associated increase in cell number at 10 uM after 12 hrs by scratch assay; assay type: functional, cell-based

Compound | Activity [1] | Activity [2] | inhibition [3] | Activity [4] | Activity [5]
COc1c(O)cc([C@H]2Oc3c(c(O)cc(O)c3[C@H]3c4c(O)cc(O)cc4O[C@H](c4cc(O)c(O)c(O)c4)[C@@H]3O)C[C@@H]2O)cc1O | inactive | Toxic | Active | Active | inactive
COc1c(O)cc([C@H]2Oc3cc(O)cc(O)c3[C@@H](c3c(O)cc(O)c4c3O[C@H](c3cc(O)c(OC)c(O)c3)[C@@H](O)C4)[C@@H]2O)cc1O | inactive | Toxic |  | Active | inactive
COc1c(O)cc([C@H]2Oc3c(c(O)cc(O)c3[C@H]3c4c(O)cc(O)cc4O[C@H](c4ccc(O)c(O)c4)[C@@H]3O)C[C@@H]2O)cc1O | inactive | Toxic |  | Active | inactive
